Assay results published in US20110280807A1, “Methods and Models for Stress-Induced Analgesia” (UNIVERSITY OF GEORGIA RESEARCH FOUNDATION, INC., priority 2005, published 2011).
Entries after “also recorded” stand apart in the source; their conditions may differ.

What was measured:
[1] = test system: rats subjected to brief, continuous footshock; test: Nonopioid stress-induced analgesia after brief continuous footshock, tail-flick test, systemic drug; format: in vivo, rat
rats [2] = test: Tolerance studies: repeated agonist injections, then footshock stress analgesia; format: in vivo, rat
[3] = test system: dorsolateral periaqueductal gray; test: PAG injection studies: microinjection into dorsolateral periaqueductal gray, stress analgesia; format: in vivo, rat; conditions: for basal nociceptive thresholds immediately prior to the stressor: after microinjection into dorsolateral periaqueductal gray
rats [4] = test: Morphine antinociception in rats treated chronically with WIN55,212-2 or vehicle; format: in vivo, rat; conditions: morphine 2.5 mg/kg s.c. on day 15
rats [5] = test: Δ^9-THC sensitization study (antinociception after stress or no stress); format: in vivo, rat; conditions: 10 mg/kg i.p. 24 h following stress or no stress; tail-flick 28-32 min after drug
rats [6] = test: Tail-flick latencies in the absence of the stressor / basal nociceptive thresholds; format: in vivo, rat
vanilloid VR1 receptors = vanilloid VR1 receptors (Homo sapiens, UniProt Q8NER1); conditions: cited from earlier work
[7] = 5 mg/kg i.p. 20 min prior to footshock

vanilloid VR1 receptors, sequence (Q8NER1 whole entry): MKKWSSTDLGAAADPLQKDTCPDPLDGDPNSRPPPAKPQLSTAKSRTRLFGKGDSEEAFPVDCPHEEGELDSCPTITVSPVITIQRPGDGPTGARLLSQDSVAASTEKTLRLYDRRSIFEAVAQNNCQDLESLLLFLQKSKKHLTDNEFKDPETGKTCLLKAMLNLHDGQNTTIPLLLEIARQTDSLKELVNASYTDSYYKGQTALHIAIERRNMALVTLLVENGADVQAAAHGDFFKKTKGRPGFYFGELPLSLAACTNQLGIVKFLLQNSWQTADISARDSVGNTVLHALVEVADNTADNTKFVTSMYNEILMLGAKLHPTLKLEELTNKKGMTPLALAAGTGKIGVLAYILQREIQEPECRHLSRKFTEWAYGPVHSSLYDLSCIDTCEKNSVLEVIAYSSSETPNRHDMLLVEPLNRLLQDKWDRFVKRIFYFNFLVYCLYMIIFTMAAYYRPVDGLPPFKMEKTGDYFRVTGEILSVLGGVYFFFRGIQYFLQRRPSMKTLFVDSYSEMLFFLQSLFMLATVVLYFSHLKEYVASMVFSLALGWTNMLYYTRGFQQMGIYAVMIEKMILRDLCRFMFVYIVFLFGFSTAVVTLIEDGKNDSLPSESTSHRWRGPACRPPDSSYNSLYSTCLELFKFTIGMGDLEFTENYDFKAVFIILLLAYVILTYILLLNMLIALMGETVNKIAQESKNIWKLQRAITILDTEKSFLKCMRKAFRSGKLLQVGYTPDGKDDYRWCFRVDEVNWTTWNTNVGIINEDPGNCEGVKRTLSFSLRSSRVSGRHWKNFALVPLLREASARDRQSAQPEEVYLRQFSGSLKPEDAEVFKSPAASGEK

Oc1cc2c(cc1O)CN(C(=S)NCCc1ccc(Cl)cc1)CCC2 [capsazepine]
effect on stress analgesia (tail-flick latencies after footshock) ([1]; 10 mg/kg i.p. 20 min prior to footshock (capsazepine)): failed to alter SIA; also recorded: did not alter stress analgesia

O=C1CC[C@@]2(O)[C@H]3Cc4ccc(O)c5c4[C@@]2(CCN3CC2CC2)[C@H]1O5 [naltrexone]
effect on stress analgesia (tail-flick latencies after footshock) ([1]; 14 mg/kg i.p. 20 min prior to footshock): not naltrexone or SR144528 blocks SIA; also recorded: neither the opioid antagonist naltrexone (14 mg/kg i.p.) nor the CB2 antagonist SR144528 altered stress analgesia

Cc1c(C(=O)c2cccc3ccccc23)c2cccc3c2n1[C@H](CN1CCOCC1)CO3 [WIN55,212-2]
stress analgesia after acute cannabinoid (rats [2]; 10 mg/kg i.p. on day 14, 24 h prior to footshock, vs vehicle): stress analgesia was increased
post-injection tail-flick latencies (tolerance to cannabinoid antinociception) (rats [2]; 10 mg/kg i.p. x 14 days, days 2, 7 and 14): higher on day 2 compared to day 7 or 14; also recorded: induced tolerance to cannabinoid antinociception
stress analgesia in cannabinoid-tolerant rats (rats [2]; chronic 10 mg/kg i.p. x 14 days, footshock 24 h after last injection, vs vehicle or acute group): SIA was attenuated; also recorded: Stress analgesia was attenuated

CCCCC/C=C\C/C=C\C/C=C\C/C=C\CCCC(=O)NCCc1c[nH]c2ccc(O)cc12 [AA-5-HT, arachidonoylserotonin]
effect on stress analgesia (tail-flick latencies after footshock) ([1]; 10 mg/kg i.p., footshock 65 min following administration (FAAH inhibition study)): Potentiation of SIA; also recorded: increased the magnitude and duration of cannabinoid stress analgesia
effect on stress analgesia after site-specific administration ([3]; 10 μg into dorsolateral periaqueductal gray, 35 min before footshock): enhanced SIA; also recorded: enhanced nonopioid stress analgesia
basal nociceptive thresholds immediately prior to the stressor [3]: absence of changes in basal nociceptive thresholds

SR144528
effect on stress analgesia (tail-flick latencies after footshock) [1, 7]: not naltrexone or SR144528 blocks SIA; also recorded: neither the opioid antagonist naltrexone (14 mg/kg i.p.) nor the CB2 antagonist SR144528 altered stress analgesia

CN1CC[C@]23c4c5ccc(O)c4O[C@H]2[C@@H](O)C=C[C@H]3[C@H]1C5 [morphine]
post-morphine tail-flick latencies (tolerance to morphine antinociception) (rats [2]; 10 mg/kg s.c. x 7 days, days 1 and 7): higher on day 1 compared to day 7
stress analgesia in morphine-tolerant rats (rats [2]; chronic morphine 10 mg/kg s.c. x 7 days vs vehicle, footshock 24 h after last injection): SIA did not differ; also recorded: No differences in stress analgesia
morphine analgesia in cannabinoid-tolerant group relative to controls (rats [4]): modest enhancement in morphine analgesia
post-morphine tail-flick latencies Mean±SEM (rats [4]; rats treated chronically with WIN55,212-2): 6.2 ± 0.25 s
post-morphine tail-flick latencies Mean±SEM (rats [4]; rats treated chronically with vehicle): 5.3 ± 0.21 s

CCCCCc1cc(O)c2c(c1)OC(C)(C)[C@@H]1CCC(C)=C[C@@H]21 [Δ^9-THC, Δ^9-tetrahydrocannabinol]
effect on stress analgesia (tail-flick latencies after footshock) ([1]; 10 mg/kg i.p. 20 min prior to footshock (Δ^9-THC), vs vehicle): potentiated SIA relative to vehicle; also recorded: enhanced the magnitude and the duration of nonopioid stress analgesia
Δ^9-THC-induced antinociception in shocked vs non-shocked rats (rats [5]): greater in rats subjected to footshock; also recorded: greater in rats subjected previously to the stressor

Cc1c(C(=O)NN2CCCCC2)nn(-c2ccc(Cl)cc2Cl)c1-c1ccc(Cl)cc1 [SR141716A]
effect on AA-5-HT potentiation of stress analgesia ([1]; 1 mg/kg i.p. ten min prior to AA-5-HT 10 mg/kg i.p.): blocked
effect on stress analgesia (tail-flick latencies after footshock) [1, 7]: blocks SIA; also recorded: markedly attenuated
tail-flick latencies in the absence of the stressor (rats [6]; no footshock, same times): failed to alter tail-flick latencies in the absence of footshock
effect on stress analgesia after site-specific administration ([3]; 1 μg into dorsolateral periaqueductal gray, 5 min before footshock): suppressed; also recorded: blocked nonopioid stress analgesia
basal nociceptive thresholds immediately prior to the stressor [3]: absence of changes in basal nociceptive thresholds
inhibition of vanilloid VR1 receptors (vanilloid VR1 receptors): inhibits vanilloid VR1 receptors at high concentrations

Cc1c(C(=O)NN2CCCCC2)nn(-c2ccc(Cl)cc2Cl)c1-c1ccc(I)cc1 [AM251]
effect on stress analgesia (tail-flick latencies after footshock) [1, 7]: suppressed SIA; also recorded: blocked this stress analgesia
basal nociceptive thresholds (rats [6]; 5 mg/kg i.p., before the stressor): absence of changes in basal nociceptive thresholds

CCCCC/C=C\C/C=C\C/C=C\C/C=C\CCCC(=O)NCCO [anandamide, arachidonylethanolamide]
binding to VR1 (vanilloid VR1 receptors): binds to VR1 with low affinity
